# Source: ChEMBL document CHEMBL6127126, “Closing the Design-Make-Test-Analyze Loop: Interplay between Experiments and Predictions Drives PROTACs Bioavailability” (J Med Chem, 2024)
# Key:
# [1] = Lipophilicity, logD of compound in octanol-water at pH 7.4 by reverse phase HPLC analysis; format: physicochemical
# [2] = Lipophilicity, logD of compound in octanol-water at pH 7.4 by shake-flask method; format: physicochemical
# [3] = Oral bioavailability in C57 BL/6 or CD-1 mouse at 1 mg/kg measured upto 24 hrs by LC-MS/MS analysis; format: ADME, organism-based; conditions: in vivo
Compound,logD ([1]; read-out: logD),logD [2],bioavailability [3] [%],logD ([2]; read-out: logD),logD [1]
CC(C)(C)NC(=O)[C@@H]1C[C@@H]2CCCC[C@@H]2CN1C[C@@H](O)[C@H](Cc1ccccc1)NC(=O)[C@H](CC(N)=O)NC(=O)c1ccc2ccccc2n1,4.5,,,,
Cc1ncsc1-c1ccc(CNC(=O)[C@@H]2C[C@@H](O)CN2C(=O)[C@@H](NC(=O)COCCOCCOCCNC(=O)C[C@@H]2N=C(c3ccc(Cl)cc3)c3c(sc(C)c3C)-n3c(C)nnc32)C(C)(C)C)cc1,3.4,3.8,0.16,,
Cc1ncsc1-c1ccc(CNC(=O)[C@@H]2C[C@@H](O)CN2C(=O)[C@@H](NC(=O)C2(F)CC2)C(C)(C)C)c(OCCOc2ccc(CN3CCN(c4cc(-c5ccccc5O)nnc4N)CC3)cc2)c1,4.2,,2.7,3.1,
CC1(C)[C@H](NC(=O)c2ccc(N3CCN(CC4CCN(c5ccc6c(c5)C(=O)N(C5CCC(=O)NC5=O)C6=O)CC4)CC3)cc2)C(C)(C)[C@H]1Oc1ccc(C#N)c(Cl)c1 (stereo not given in full),6.2,,61.4,4.6,
Cc1nc(CCC(=O)NCCCCC(=O)N[C@H](C(=O)N2C[C@H](O)C[C@H]2C(=O)NCc2ccc(-c3scnc3C)cc2)C(C)(C)C)ccc1-c1cnc(NCc2c(Cl)ccc3c2CCO3)n2cnnc12,2.5,,0,3.8,
C=CCc1ccccc1OCC(O)CNC(C)C (stereo not given) [ALPRENOLOL],1.5,,,,
COC(=O)N[C@H](C(=O)N[C@@H](Cc1ccccc1)[C@@H](O)CN(Cc1ccc(-c2ccccn2)cc1)NC(=O)[C@@H](NC(=O)OC)C(C)(C)C)C(C)(C)C [ATAZANAVIR],,,,,4.2
N#Cc1ccc(O[C@H]2CC[C@H](NC(=O)c3ccc(N4CCC(CN5CCN(c6cc7c(cc6F)C(=O)N(C6CCC(=O)NC6=O)C7=O)CC5)CC4)nn3)CC2)cc1Cl (stereo not given in full) [BAVDEGALUTAMIDE],5,,64.6,4.8,
CN(C)CCC=C1c2ccccc2C=Cc2ccccc21 [CYCLOBENZAPRINE],3.1,,,,
Cc1ncsc1-c1ccc([C@H](C)NC(=O)[C@@H]2C[C@@H](O)CN2C(=O)[C@@H](NC(=O)CCCCCC(=O)N2CCN(CC[C@H](CSc3ccccc3)Nc3ccc(S(=O)(=O)NC(=O)c4ccc(N5CCN(CC6=C(c7ccc(Cl)cc7)CCC(C)(C)C6)CC5)cc4)cc3S(=O)(=O)C(F)(F)F)CC2)C(C)(C)C)cc1 [DT-2216],7.3,,0.07,3.9,
CCOC(=O)C1=C(C)NC(C)=C(C(=O)OC)C1c1cccc(Cl)c1Cl (stereo not given) [FELODIPINE],,,,,5.2
Cn1c(=O)n(C2CCC(=O)NC2=O)c2cccc(C#CCOC3CCN(C[C@H]4CC[C@H](n5cc(NC(=O)c6cnn7ccc(N8C[C@H]9C[C@@H]8CO9)nc67)c(C(F)F)n5)CC4)CC3)c21 (stereo not given in full) [KT-474],,,23.7,3.5,2.4
COc1cc(O[C@H]2C(C)(C)[C@H](NC(=O)c3ccc(N4CCC(CN5CCN(c6ccc(C(=O)N[C@H]7CCC(=O)NC7=O)c(F)c6)CC5)CC4)cc3)C2(C)C)ccc1C#N [LUXDEGALUTAMIDE],5,,57.6,3.7,
COC(=O)C1=C(C)NC(C)=C(C(=O)OCCN(C)Cc2ccccc2)C1c1cccc([N+](=O)[O-])c1 (stereo not given) [NICARDIPINE],5,,,,
CC1(C)CCC(CN2CCN(c3ccc(C(=O)NS(=O)(=O)c4ccc(NCC5CCOCC5)c([N+](=O)[O-])c4)c(Oc4cnc5[nH]ccc5c4)c3)CC2)=C(c2ccc(Cl)cc2)C1 [VENETOCLAX],7.9,,,,
O=C1CC[C@H](N2Cc3cc(N4CCN(CC5CCN(c6ccc([C@@H]7c8ccc(O)cc8CC[C@@H]7c7ccccc7)cc6)CC5)CC4)ccc3C2=O)C(=O)N1 [VEPDEGESTRANT],,,58.5,4.6,5.7
CC(=O)CC(c1ccccc1)c1c(O)c2ccccc2oc1=O (stereo not given) [WARFARIN],0.78,,,,
